Reference: patent US4489003A, “Imidazobenzodiazepines” (Hoffmann-La Roche Inc., priority 1982, dated 1984)

Key:
[1] = molecular target: central benzodiazepine receptors; assay: inhibition of the binding of tritiated diazepam at the specific benzodiazepine receptors in the cerebral cortex; conditions: [3H]diazepam
Protocol: The affinity of compounds of general formula I to the central benzodiazepine receptors was determined according to the method described in Life Science 20, 2101-2110 (1977) and Science 198, 849-851 (1977). According to this method, the inhibition of the binding of tritiated diazepam at the specific benzodiazepine receptors in the cerebral cortex by the respective test substances is ascertained. The IC50 ("50% inhibiting concentration") is that concentration of the respective test substance which brings about a 50 percent inhibition of the specific binding of the tritiated diazepam at the specific benzodiazepine receptors in the cerebral cortex.

[2] = test system: spasmodic seizures caused by pentetrazole; assay: antipentetrazole test; assay type: in vivo; conditions: Rattus norvegicus, po, 0.5 h; female rats 60-80 g, p.o. 30 minutes before 120 mg/kg pentetrazole i.p.
Protocol: The central properties of the compounds of formula I provided by the present invention can be determinded, for example, in the antipentetrazole test which is described hereinafter and which is generally recognized for recording anticonvulsant properties.
In this animal experiment the compound under investigation is administered orally to female rats weighing 60-80 g and 30 minutes later there are administered intraperitoneally 120 mg/kg of pentetrazole which causes emprosthotonus and tonic stretchings of the fore and/or hind limbs in unprotected experimental animals 1 to 4 minutes after the injection. Ten experimental animals are used per dosage of test substance. After counting the protected experimental animals, the ED50 is determined according to the Probit method. The ED50 is that dosage which protects 50% of the experimental animals from the spasmodic seizures caused by pentetrazole.

[3] = test system: sedative, muscle relaxant and motor coordination-disturbing activity caused by high dosages of diazepam; assay: traction test (antagonism of diazepam); assay type: in vivo; conditions: Mus musculus, po, 0.25 h; mice, p.o. 15 minutes after 3 mg/kg diazepam i.p.
Protocol: In this animal experiment the ability of the test substances to antagonise the sedative, muscle relaxant and motor coordination-disturbing activity caused by high dosages of diazepam is determined.
Mice weighing 17-29 g are lifted by the tail and are allowed to grip a taut horizontal wire (length 15 cm, height 20 cm, diameter 1 mm) with the front paws, whereupon the experimental animals are released. Untreated control animals are capable of gripping the wire with both front paws and at least one hind paw within 3 seconds. If 3 mg/kg of diazepam are administered intraperitoneally to the experimental animals, then their aforementioned capabilities disappear, i.e. they are no longer capable of gripping the taut horizontal wire within 3 seconds with both front paws and at least one hind paw. 15 minutes after the administration of diazepam the compound under investigation is administered orally to the experimental animals, whereupon there are counted those animals which have regained the aforementioned capabilities. The ED50 is that dosage which in 50% of the experimental animals antagonizes the action of diazepam, i.e. counteracts this.

[4] = acute toxicity, single oral administration; conditions: rat, in vivo; single oral administration to rats
From the text: The results obtained with representative compounds of formula I in the experiments described earlier are compiled in the following Table. The Table also contains data concerning the acute toxcity of some of these compounds (LD50 in mg/kg following single oral administration to rats).

## O=C(OCC1CC1)c1ncn2c1[C@@H]1CCCN1C(=O)c1c(Cl)cccc1-2
[1]
  IC50: 2300 nM
[2]
  ED50: 0.66 mg/kg
[3]
  ED50: 0.8 mg/kg
[4]
  LD50: 1000 to 2000 mg/kg

## O=C(OCC1CC1)c1ncn2c1[C@@H]1CCN1C(=O)c1c(Cl)cccc1-2
[1]
  IC50: 1100 nM
[2]
  ED50: 0.27 mg/kg
[3]
  ED50: < 30 mg/kg

## O=C(OCc1ccccc1)c1ncn2c1[C@@H]1CCCN1C(=O)c1c(Cl)cccc1-2
[1]
  IC50: 1500 nM
[2]
  ED50: > 100 mg/kg
[3]
  ED50: 0.09 mg/kg

## O=C(OC1CCCCC1)c1ncn2c1[C@@H]1CCCN1C(=O)c1c(Br)cccc1-2
[1]
  IC50: 2700 nM
[2]
  ED50: 7 mg/kg
[3]
  ED50: < 30 mg/kg
[4]
  LD50: > 5000 mg/kg

## O=C(OCC1CC1)c1ncn2c1[C@@H]1CCCN1C(=O)c1c(Br)cccc1-2
[1]
  IC50: 2600 nM
[2]
  ED50: 0.63 mg/kg
[3]
  ED50: < 30 mg/kg
[4]
  LD50: 625 to 1250 mg/kg

## O=C(OC1CCCCC1)c1ncn2c1[C@@H]1CCCN1C(=O)c1c(I)cccc1-2
[1]
  IC50: 2100 nM
[2]
  ED50: 2.2 mg/kg
[3]
  ED50: > 30 mg/kg
[4]
  LD50: > 5000 mg/kg

## C#CCOC(=O)c1ncn2c1[C@@H]1CCCN1C(=O)c1c(Cl)cccc1-2 [Example 27, 2-propynyl (S)-8-chloro-11,12,13,13a-tetrahydro-9-oxo-9H-imidazo[1,5-a]pyrrolo[2,1-c][1,4]benzodiazepine-1-carboxylate]
[1]
  IC50: 2100 nM
[2]
  ED50: > 100 mg/kg
[3]
  ED50: 0.005 mg/kg
